According to patent US7084136B2, “Drug composition antagonistic to both PGD2/TXA2 receptors” (Shionogi & Co., Ltd., priority 2000, dated 2006):
Like-named read-outs stand apart in the source and are kept apart here. Marks after values point to notes of the source that are not given here.

Experiments:
[1] = target: T1, TXA2 receptor (Homo sapiens, UniProt P21731); assay: Binding activity to TXA2 receptor ([3H](+)-S-145 sodium salt, human platelet membrane fraction)
T1 construct: The human platelet membrane fraction was prepared in accordance with Experiment 1 (1); from tissue; host or cells: human platelet membrane fraction from blood of healthy volunteers
T1 sequence (P21731 1-343): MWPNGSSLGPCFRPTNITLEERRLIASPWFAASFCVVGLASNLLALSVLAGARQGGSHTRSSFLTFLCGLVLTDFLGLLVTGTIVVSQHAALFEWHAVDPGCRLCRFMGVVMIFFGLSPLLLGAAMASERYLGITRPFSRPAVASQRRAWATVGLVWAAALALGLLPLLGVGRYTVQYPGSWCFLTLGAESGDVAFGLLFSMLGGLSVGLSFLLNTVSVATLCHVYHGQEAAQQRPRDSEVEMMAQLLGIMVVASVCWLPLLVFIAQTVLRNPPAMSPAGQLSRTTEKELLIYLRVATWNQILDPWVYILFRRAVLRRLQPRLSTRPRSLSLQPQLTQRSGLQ
Method: Experiment 2 Binding Activity to TXA2 Receptor
(1) Preparation of Human Platelet Membrane Fraction
The human platelet membrane fraction was prepared in accordance with Experiment 1 (1).
(2) Binding to TXA2 Receptor
To a binding-reaction solution (50 mM Tris/HCl, pH 7.4, 10 mM MgCl2) (0.2 ml) were added the human platelet membrane fraction (0.05 mg) and 2 nM Sodium [^3H](+)-(5Z)-7-[3-endo-[(phenylsulfonyl)amino]bicyclo[2.2.1]hept-2-exo-yl]heptenoate (Japanese Patent Publication (Kokoku) No.79060/1993, hereinafter referred to as (+)-S-145 sodium salt) (26.4 Ci/mmol), and the mixture was reacted at room temperature for 90 min. After the reaction, the resultant mixture was filtered through a glass fiber filter paper and washed several times with cooled physiological saline, then the radioactivity retained on the filter paper was measured. The specific-binding ratio was calculated by subtracting the non-specific binding ratio (the radio activity similarly determined in the presence of 10 μM (+)-S-145 sodium salt) from the total binding. The inhibitory activity of each compound was expressed as the concentration required for 50% inhibition (IC50), which was determined by depicting a substitution curve by plotting the binding ratio (%) in the presence of each compound, where the binding ratio in the absence of a test compound is 100%.

[2] = tested on: Male Hartley guinea pigs; assay: Antigen-induced bronchial hyperresponsiveness (acetylcholine PD200, OVA-sensitized guinea pigs); type: in vivo, guinea pig; conditions: for inhibition of the induction of bronchial hyperresponsiveness: summary of Table 74 to Table 76, oral, guinea pig
Method: Comparative Experiment 2 Antigen-Induced Bronchial Hyperresponsiveness
Male Hartley guinea pigs were actively sensitized to ovalbumin (OVA) by inhalation of aerosolized solution of 1% ovalbumin twice at a week interval. One week after the second sensitization, the animals were treated with antihistamine, diphenhydramine (10 mg/kg, i.p.), and then challenged with 1% OVA aerosol for 5 min. Twenty four hours later, acetylcholine at doses at 3.13, 6.25, 12.5, 25, 50 and 100 micro g/kg was sequentially injected into the animals which were anesthetized with pentobarbital (30 mg/kg, i.p.). The bronchoconstriction induced by each dose of acetylcholine was monitored by the modified method of Konzett-Rössler technique, and made a dose-response curve of acetylcholine. Using the dose-response curve, the dose required for 200% increase in bronchoconstriction from baseline (PD200) was calculated in each animal and used as an indication of bronchial responsiveness. Compounds were orally administered 1 hour before antigen challenge. **: P<0.01 vs Vehicle(Dunnett's test), ^##: P<0.01 vs Vehicle(Student's t test).

[3] = comparative experiment in accordance with Experiment 2, read-out: Experiment 2 Antagonistic activity against TXA2 receptor IC50

| SMILES | IC50 [1, 3] [nM] | IC50 ([1]; human platelet membrane fraction, 2 nM [3H](+)-S-145 sodium salt, read-out: Binding activity to TXA2 receptor in human platelet membrane fraction IC50) [nM] | Log PD200 ([2]; 10 mg/kg orally 1 hour before antigen challenge, acetylcholine dose for 200% increase in bronchoconstriction, 24 h after OVA challenge) | inhibition of the induction of bronchial hyperresponsiveness [2] | Log PD200 ([2]; 1 mg/kg orally 1 hour before antigen challenge, OVA-sensitized guinea pigs, acetylcholine) | Log PD200 ([2]; 10 mg/kg orally 1 hour before antigen challenge, OVA-sensitized guinea pigs, acetylcholine) |
| --- | --- | --- | --- | --- | --- | --- |
| Cc1cccn1S(=O)(=O)c1ccc(C(=O)N[C@@H]2[C@@H](CCCC/C=C/C(=O)O)C[C@H]3C[C@@H]2C3(C)C)s1 [II-7I-55a] | 2.3 | 2.3 | 1.442 ± 0.055** | suppressed | – | – |
| O=C(O)CCC/C=C\C[C@H]1[C@@H]2CC[C@@H](C2)[C@@H]1NS(=O)(=O)c1ccccc1 [A, reference compound] | 3.8 | – | – | suppressed | 1.29 ± 0.04 | 1.61 ± 0.09** |
